Reference: ChEMBL document CHEMBL1201862, “PubChem BioAssay data set” (2004)
The source made the active and inactive calls.

Columns and labels:
Caspase-8 = Caspase-8 (Homo sapiens, UniProt Q14790); test: caspase-8 inhibition counter-screen, dose response, selectivity assay for caspase-6 inhibitor project, biochemical, Z-IETD-R110 fluorescence, cherry-picked samples (AID 743294)
[1] = target: T1, Sentrin-specific protease 7 (Homo sapiens, UniProt Q9BQF6); format: functional;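 further: Luminescence-based dose-response confirmation of ultra-high-throughput screening hits, measuring inhibition of SENP7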
T1 sequence (Q9BQF6 whole entry): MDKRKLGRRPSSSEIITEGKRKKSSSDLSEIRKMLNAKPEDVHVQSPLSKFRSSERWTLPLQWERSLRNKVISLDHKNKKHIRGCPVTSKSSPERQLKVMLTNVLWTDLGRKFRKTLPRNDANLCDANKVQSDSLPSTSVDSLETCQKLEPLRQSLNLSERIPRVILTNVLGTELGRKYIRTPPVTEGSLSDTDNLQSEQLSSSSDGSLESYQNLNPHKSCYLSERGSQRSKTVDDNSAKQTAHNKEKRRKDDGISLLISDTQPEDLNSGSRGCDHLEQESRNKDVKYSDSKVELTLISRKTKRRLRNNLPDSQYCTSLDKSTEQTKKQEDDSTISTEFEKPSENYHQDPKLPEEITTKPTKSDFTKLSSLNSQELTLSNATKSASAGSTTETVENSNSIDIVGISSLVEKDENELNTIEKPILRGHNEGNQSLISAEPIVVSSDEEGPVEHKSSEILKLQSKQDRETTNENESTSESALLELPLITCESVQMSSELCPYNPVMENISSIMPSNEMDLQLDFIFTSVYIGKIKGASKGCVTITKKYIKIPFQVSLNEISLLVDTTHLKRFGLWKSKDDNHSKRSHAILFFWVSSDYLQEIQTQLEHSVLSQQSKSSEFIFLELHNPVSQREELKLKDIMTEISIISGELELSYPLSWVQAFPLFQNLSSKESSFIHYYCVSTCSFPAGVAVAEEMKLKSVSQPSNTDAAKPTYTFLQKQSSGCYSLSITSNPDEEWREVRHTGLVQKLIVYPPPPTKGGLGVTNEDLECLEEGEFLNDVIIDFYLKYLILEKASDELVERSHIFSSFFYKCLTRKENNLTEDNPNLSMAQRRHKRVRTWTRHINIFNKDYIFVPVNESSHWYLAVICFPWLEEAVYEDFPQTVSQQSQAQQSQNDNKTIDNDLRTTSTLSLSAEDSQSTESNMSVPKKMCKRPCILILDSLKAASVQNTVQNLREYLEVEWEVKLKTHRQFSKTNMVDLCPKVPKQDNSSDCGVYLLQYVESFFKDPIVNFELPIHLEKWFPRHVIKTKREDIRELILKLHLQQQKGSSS

Caspase-9 = Caspase-9 (Homo sapiens, UniProt P55211); test: caspase-9 enzyme inhibition, dose response, selectivity assay for caspase-6 inhibitor project, biochemical, fluorescence, plate reader, cherry-picked samples (AID 743293)
Sequence of Caspase-9 (P55211 1-315 limits assumed): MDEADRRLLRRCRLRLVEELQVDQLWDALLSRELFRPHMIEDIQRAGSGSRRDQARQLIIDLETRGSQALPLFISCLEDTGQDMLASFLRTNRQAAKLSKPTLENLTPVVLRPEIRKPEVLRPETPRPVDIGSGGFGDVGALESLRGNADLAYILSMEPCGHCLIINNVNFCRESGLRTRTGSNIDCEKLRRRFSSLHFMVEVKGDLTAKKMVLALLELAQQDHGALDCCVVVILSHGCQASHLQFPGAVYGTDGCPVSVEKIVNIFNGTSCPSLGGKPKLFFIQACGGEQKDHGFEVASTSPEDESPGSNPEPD
Sequence of Caspase-9 (P55211 331-416 limits assumed): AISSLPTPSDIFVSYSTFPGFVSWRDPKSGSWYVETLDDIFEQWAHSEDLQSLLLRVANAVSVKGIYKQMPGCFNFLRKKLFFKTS

[2] = target: Delta-type opioid receptor (Homo sapiens, UniProt P41143); test: Counterscreen for agonists of heterodimerization of the mu 1 (OPRM1) and delta 1 (OPRD1) opioid receptors: Luminescence-based cell-based high throughput dose response assay to identify agonists of OPRD1 homodimerization. [Related pubchem assays (depositor defined):AID504326, AID504355, AID504692, AID504904, AID504905]; format: functional
Sequence of Delta-type opioid receptor (P41143 whole entry): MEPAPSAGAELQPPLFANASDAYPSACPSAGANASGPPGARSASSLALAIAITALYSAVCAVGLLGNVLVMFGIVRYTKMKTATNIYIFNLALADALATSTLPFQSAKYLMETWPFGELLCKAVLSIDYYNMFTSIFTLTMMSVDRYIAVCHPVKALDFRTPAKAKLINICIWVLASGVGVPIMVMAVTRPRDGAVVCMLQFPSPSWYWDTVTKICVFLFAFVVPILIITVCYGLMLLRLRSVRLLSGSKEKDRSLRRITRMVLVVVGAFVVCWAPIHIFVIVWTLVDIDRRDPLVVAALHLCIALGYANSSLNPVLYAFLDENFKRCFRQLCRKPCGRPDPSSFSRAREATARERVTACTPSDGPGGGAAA

[3] = THP-1 cell cytotoxicity, dose response, cytotoxicity control for Vif-APOBEC3G degradation inhibitor project, THP-1 cells (AID 1117359); format: functional; details: Human immunodeficiency virus 1, THP-1
[4] = target: T2, Endoribonuclease toxin MazF (Escherichia coli K-12, UniProt P0AE70); test: fluorescent RNA oligo signal without MazF, dose response, counter-screen for MazEF activator project, biochemical, fluorescence, single-stranded RNase substrate (AID 588502); format: functional
T2 sequence (P0AE70 whole entry): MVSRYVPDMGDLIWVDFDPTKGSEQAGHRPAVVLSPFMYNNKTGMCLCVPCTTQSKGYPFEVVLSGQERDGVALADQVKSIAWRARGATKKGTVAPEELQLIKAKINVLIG

[5] = target: T3, Tyrosine-protein phosphatase non-receptor type 7 (Homo sapiens, UniProt P35236); format: functional
T3 sequence (P35236 whole entry): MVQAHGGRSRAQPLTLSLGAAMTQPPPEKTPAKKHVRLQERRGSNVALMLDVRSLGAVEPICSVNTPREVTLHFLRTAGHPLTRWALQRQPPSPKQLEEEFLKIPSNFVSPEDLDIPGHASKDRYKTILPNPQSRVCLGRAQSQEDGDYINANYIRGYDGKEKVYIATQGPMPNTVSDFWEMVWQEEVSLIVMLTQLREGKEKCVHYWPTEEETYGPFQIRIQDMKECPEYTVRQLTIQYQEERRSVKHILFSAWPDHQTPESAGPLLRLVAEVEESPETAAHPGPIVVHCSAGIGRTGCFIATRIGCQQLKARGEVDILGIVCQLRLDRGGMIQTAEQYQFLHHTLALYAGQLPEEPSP

BJ = test: cytotoxicity toward BJ-TERT-LT-ST fibroblasts, dose response, cell-based, RAS-independent, luminescence (AID 1935); format: functional; details: Homo sapiens;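 further: BJ fibroblasts immortalized with TERT plus LT and ST oncogenes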
[6] = system: Streptococcus sp. 'group A'; test: growth inhibition of control SK(-) GAS strain, dose response, counter-screen for streptokinase expression inhibitor project, luminescence, kanamycin, BacTiterGlo, confirmation (AID 1900); format: functional, organism-based
[7] = target: Sphingosine 1-phosphate receptor 2 (Homo sapiens, UniProt O95136); test: Dose Response Cell Based Assay for Antagonists of the S1P2 Receptor. [Related pubchem assays: 856, 736 ]; format: functional
Sequence of Sphingosine 1-phosphate receptor 2 (O95136 whole entry): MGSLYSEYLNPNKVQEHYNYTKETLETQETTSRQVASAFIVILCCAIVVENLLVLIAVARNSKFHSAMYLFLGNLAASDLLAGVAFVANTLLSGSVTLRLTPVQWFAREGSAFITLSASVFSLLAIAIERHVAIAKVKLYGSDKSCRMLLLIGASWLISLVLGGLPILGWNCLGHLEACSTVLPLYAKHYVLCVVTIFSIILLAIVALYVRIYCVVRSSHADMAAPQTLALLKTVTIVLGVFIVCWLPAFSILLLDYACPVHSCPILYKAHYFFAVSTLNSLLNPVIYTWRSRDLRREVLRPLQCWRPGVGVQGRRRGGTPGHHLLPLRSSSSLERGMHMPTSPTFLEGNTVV

[8] = target: T4, Tyrosine-protein phosphatase non-receptor type 22 (Homo sapiens, UniProt Q9Y2R2); format: functional;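 further: confirmatory dose-response retesting of primary uHTS hits against LYP; potency is for inhibition of phosphatase activity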
T4 sequence (Q9Y2R2 whole entry): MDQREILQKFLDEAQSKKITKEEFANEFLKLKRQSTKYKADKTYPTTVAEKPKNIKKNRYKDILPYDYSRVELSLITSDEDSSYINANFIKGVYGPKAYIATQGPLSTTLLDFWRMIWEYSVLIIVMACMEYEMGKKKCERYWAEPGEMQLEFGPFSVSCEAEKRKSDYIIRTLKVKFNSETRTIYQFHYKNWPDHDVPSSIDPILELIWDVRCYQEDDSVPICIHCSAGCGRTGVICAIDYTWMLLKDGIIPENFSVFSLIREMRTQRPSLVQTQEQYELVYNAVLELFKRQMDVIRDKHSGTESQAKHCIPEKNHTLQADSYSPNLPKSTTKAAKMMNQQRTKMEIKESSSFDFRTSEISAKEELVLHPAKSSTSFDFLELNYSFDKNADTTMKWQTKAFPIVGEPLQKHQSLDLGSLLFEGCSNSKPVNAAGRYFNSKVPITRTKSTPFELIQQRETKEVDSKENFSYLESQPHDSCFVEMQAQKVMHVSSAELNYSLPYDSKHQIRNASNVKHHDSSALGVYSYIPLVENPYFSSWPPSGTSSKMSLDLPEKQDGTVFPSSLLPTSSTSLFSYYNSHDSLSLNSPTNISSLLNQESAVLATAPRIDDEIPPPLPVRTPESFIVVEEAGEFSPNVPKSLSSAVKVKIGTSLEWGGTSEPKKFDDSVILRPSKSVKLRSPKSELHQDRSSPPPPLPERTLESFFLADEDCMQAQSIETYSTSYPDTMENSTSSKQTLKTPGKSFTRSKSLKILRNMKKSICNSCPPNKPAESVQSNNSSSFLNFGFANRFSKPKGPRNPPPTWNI

Sequence of Caspase-8 (Q14790 217-374 limits assumed): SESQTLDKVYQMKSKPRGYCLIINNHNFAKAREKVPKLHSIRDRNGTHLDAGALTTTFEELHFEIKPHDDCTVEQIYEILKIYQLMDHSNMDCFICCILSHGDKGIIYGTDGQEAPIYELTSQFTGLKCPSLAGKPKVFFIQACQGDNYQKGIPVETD
Sequence of Caspase-8 (Q14790 385-479 limits assumed): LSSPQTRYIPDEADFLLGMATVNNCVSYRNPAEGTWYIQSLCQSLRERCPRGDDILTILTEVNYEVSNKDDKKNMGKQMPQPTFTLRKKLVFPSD

With Oc1nc(Nc2ccccc2Cl)cc2ccccc12 the AC50 (Caspase-8) was 13.4 µM (active), the IC50 [1] was 4.7 µM (active) and the AC50 (Caspase-9) was 28.8 µM (active).
For O=C1C=C(c2c(O)ccc3ccccc23)c2ccccc2C1=O, the EC50 [2] was > 92.4 µM (inactive), the CC50 [3] was 7.1 µM (active) and the EC50 [4] was > 99 µM (inactive).
For Cc1nc2c(=O)n(C)c(=O)nc-2n(C)n1, the IC50 [5] was < 1.24 µM (active), the EC50 (BJ) was 4.95 µM (inconclusive) and the EC50 [6] was 4.74 µM (active). The IC50 [7] was 1.4 µM (active) and the IC50 [8] was < 1.24 µM (active).
